This note sets out measurements from publication PMC12973313 (Chemical Science, 2026).

Data set [1] has as its system RPE-1 cells. The data set can be described thus: GI50 determination, SRB assay. In kind it is cell-based, human. The following applies: 96 hours; read-out: Mean GI50 (μM) RPE-1 SRB Assays. The protocol:
(§1) GI50 determination assays
(§2) Cell culture: The RPE-1 retinal pigment epithelial, A2780 human ovarian carcinoma, and A2780 CisR cisplatin resistant human ovarian carcinoma cell lines were donated with thanks from the Institute of Cancer Research. The A2780 and A2780 CisR cell lines were cultured in IMDM supplemented with 10 % FBS at 37 °C and 5 % CO2, while the RPE-1 cell line was cultured in a 1:1 mixture of Dulbecco's Modified Eagle Medium and Ham’s F-12 Nutrient Mixture (DMEM/F-12) at 37 °C and 5 % CO2.
(§3) SRB assay: Cells were seeded into 96-well plates at 800 cells per well/cpw (A2780), 1600 cpw (A2780 CisR) or 400 cpw (RPE-1) in cell culture medium and cultured for 48 hours followed by addition of each compound over an eight-point concentration range (each concentration in triplicate). Plates were then cultured for a further 96 hours, after which the cell culture […]
(§4) medium was removed from each well and the cells fixed with addition of 70 µL/well of 10 % (w/v) trichloroacetic acid (TCA) in distilled water followed by incubation for 30 minutes at RT.
(§5) Each plate was then washed with distilled water five times before addition of 70 µL SRB dye (0.4 % (w/v) SRB dye (ThermoFisher Scientific, USA) solubilised in 1 % (v/v) acetic acid/ dH2O) and incubat ed for 30 minutes at RT, followed by washing three times with 1 % (v/v) acetic acid and drying in a 37 °C oven overnight. Once dry, 100 μl of 10 mM Tris -base (ThermoFisher Scientific, USA) was added to each well and plates put on a microplate shaker for 10 minutes at 200 rpm to solubilize the dye. Absorbance values were then read at wavelength 490 nm on a Victor X4 multi-label plate reader (PerkinElmer Life Sciences, USA), data analysed using Microsoft Excel and graphs produced using GraphPad Prism 9.0 and the GI50 value calculated.
(§6) Solutions and compo und preparation: All solvents and starting materials were purchased from known chemical suppliers. Compound stock solutions were prepared in DMSO. Buffer […]
(§7) 500 mM. Buffer B consisted of Na2SO4 (167 mM) and NaOAc (5 mM) with a pH of 5.5 and an ionic strength of 500 mM.
(§8) Vesicle formation: Giant unilamellar Vesicles (GUVS) were prepared through the electro formation method using a Nanion VesiclePrepPro. A solution of 1,2-diphytanoyl-sn-glycero-3-phosphocholine (DPhPC) (10 mM) with 10 % cholesterol in chloroform (20 µL) was deposited onto an ITO coated glass surface (surface coated glass slide) and allowed to evaporate to create a dehydrated thin lipid film. A greased O-ring was then placed around the dehydrated lipid film to create a seal. This volume was then filled with a sucrose solution (275 µL, 200 mM) and then sealed with a second ITO coated glass slide. An AC current (3 V/5 Hz) was then applied. After 2 hrs, the voltage and frequency were reduced in steps over 30 mins to 1.6 V/1 Hz and held for 1 hr before being reduced to 0 V/0 Hz over a further 30 min […]
(§9) Patch clamp measurements: Experiments were performed using a Port-a-Patch system (Nanion Technologies) with borosilicate glass chips that contain an aperture diameter of approximately 1 µm. Buffer A (5 µL) was placed on the underside of the chip over the aperture, The chip was then placed into the port-a-patch system. Buffer A (15 µL) was then added to the top of the chip and 5 µL of the GUV stock solution added. The GUVS were the positioned over the aperture in the chip by application of negative pressure (-30 mbar).
(§10) When a GUV is positioned over the aperture in the chip, it bursts, leaving a planar bilayer as a seal. The negative pressure is then removed, leaving the planar bilayer in place over the aperture. The external buffer A was the exchanged with buffer B, through four simultaneous […]
(§11) buffer exchanges (4 x 15 µL). […]
(§12) = 30 s, to give a final experimental concentration of 0.1 – 1 mM as appropriate. The number of sweeps was set to 1000, the sweep interval to 0.00 s, sample interval to 1.00 ms and the protocol was run for a total of 5 mins. Each experiment was repeated a minimum of three time to ensure reproducibility.

The test system of data set [2] is A2780 CisR cisplatin resistant ovarian cancer cells. Kind of data set: GI50 determination, SRB assay. In kind it is cell-based, human. The following applies: 96 hours; read-out: Mean GI50 (μM) A2780 CisR SRB Assays. The protocol: as §1, §2, §3, §4, §5, §6, §7, §8, §9, §10, §11, §12
In data set [3] the test system is A2780 ovarian cancer cells. The data set can be described thus: GI50 determination, SRB assay. In kind it is cell-based, human. Conditions: 96 hours; read-out: Mean GI50 (μM) A2780 SRB Assays. The protocol: as §1, §2, §3, §4, §5, §6, §7, §8, §9, §10, §11, §12
The nature of data set [4]: Plasma protein binding, equilibrium dialysis. The class given is in vitro ADME, human. Conditions: pH 7.4; human plasma, after 6 hours. The protocol:
This allows an assessment of the free drug concentration available to distribute into the tissues and interact with the target. The extent to which a compound binds to the constituents of blood plasma can influence drug distribution. […] page 10: In vitro Absorption, Distribution and Metabolism studies General note: These studies were performed by Contract Research Organisation (CRO) Pharmaron. The methodology provided within the ESI is published within the express permission of this organisation. The percentage of a compound recovered during the […] limitations such as unintended potential non-specific binding events to experimental equipment, solubility issues, etc. Protein Binding measurements in human plasma by using equilibrium dialysis: The fraction unbound in human plasma (P-KB, Ltd People's hospital of Shandong) was measured using 96-well Equilibrium Dialysis Plate (HTDialysis LLC, Gales Ferry, CT). Human plasma containing 5 μM test compound was dialysed against dialysis buffer (PBS, pH 7.4) with initial samples taken to allow for assessment of plasma stability and recovery before the plate was incubated for 6 hours at 37°C at 5% CO2. Samples were removed at 6 hours, and all samples were matrix matched and quenched with acetonitrile containing internal standard. Samples were centrifuged at 3,220g for 30 minutes to precipitate protein and enable sampling of supernatant prior to appropriate dilution for liquid chromatography mass-spectrometry (LC-MS/MS) analysis. Samples were analysed using a Shimadzu Nexera LC Binary Gradient LC-30AD (Shimadzu Inc, Kyoto), coupled to a Sciex 6500+ (AB Inc., Illinois). Separation was achieved using a XSelect HSS T3 (2.5μm, 2.1 x 50 mm) (Waters Ltd., Wilmslow) column at a temperature of 40°C and a binary mobile phase gradient at a flow rate of 0.8 mL/min. Initial LC conditions comprised of […] was ramped to 98% B at 0.5 min, held for 0.4 min and then immediately returned to initial conditions. Sample analysis was by electrospray ionisation in combined with multiple reaction monitoring in positive ionisation mode. The ionisation voltage was +5500 V. Kinetic Solubility Determination in PBS pH 7.4: The stock solutions of test and control compounds were prepared in DMSO at 10 mM. From […] These solutions were then shaken at 1100 rpm for 2 hours at 25°C. Following incubation, the samples were filtered using a vacuum manifold. The filtrate was analysed and quantified against a standard of known concentration using liquid chromatography mass- spectrometry (LC-MS/MS). Samples were analysed using a Shimadzu Nexera LC Binary Gradient LC-30AD (Shimadzu Inc, Kyoto), coupled to a Sciex 4500 mass spectrometer (AB Inc., Illinois). Separation of […] Wilmslow) at a temperature of 40°C and a binary mobile phase gradient at a flow rate of 0.8 mL/min. […] This was ramped to 98% solvent B at 0.5 minutes, held for 0.4 minutes and then immediately returned to initial conditions. Sample analysis was by electrospray ionisation combined with multiple reaction monitoring in positive ion mode. The ionspray voltage was […]. 10

A short description of data set [5]: Bi-directional permeability in Caco-2 cell line. The class given is in vitro ADME. The following applies: human; for Papp B→A at 2 h, 5 µM: Caco-2, pH 7.4, 5 µM, basolateral to apical; for recovery at 2 h, 5 µM: Caco-2, pH 7.4, after 2 hours; for Papp A→B at 2 h, 5 µM: apical to basolateral. An excerpt: Next, to gauge the suitability of SSAs for oral dosing, 9 was subjected to a Caco-2 permeability assay which is used to both predict human intestinal permeability and investigate drug efflux, predicting in vivo compound absorption. This assay allows assessment of a compound's ability to undergo transport from the apical to the basolateral (A–B) compartments of the cell monolayer and vice versa (B–A). […] This is likely to result in poor absorption when dosed orally and therefore further development would be necessary for these agents to become suitable for oral administration. […]
The ionspray voltage was 5500V.
Bi-directional Permeability in Caco-2 Cell Line:
The bi-directional permeability in Caco-2 cell lines was determined by seeding cells onto an HTS Transwell plate. Cells were cultivated for 14-18 days in a cell culture incubator at 37°C, 5% CO2, 95% relative humidity. Cell culture medium was replaced every other day. To assess monolayer integrity the transepithelial electrical resistance (TEER) across the monolayer was measured using Millicell Epithelial volt-ohm meter prior to assay and Lucifer yellow (LY) fluorescence measurement post-assay.
Test compound was prepared in DMSO and diluted in Hank’s Balanced Saline Solution (HBSS, pH 7.4) to a final concentration of 5 µM. Compound was added to the donor compartment of the transwell plate for both apical to basolateral (A>B) and basolateral to apical (B>A) measurements, with blank HBSS being added to the receiver compartment. The transwell plate was then incubated at 37°C, 5% CO2 for 2 hours.
Samples were taken at T=0 and T=2 hours determine the concentration of initial donor sample, and the concentration of receiver and donor wells post-incubation, respectively.
The samples were quenched with solvent containing internal standard (IS). The supernatant was mixed with an appropriate volume of ultra-pure water before LC-MS/MS analysis.
Samples were analysed using a Shimadzu Nexera LC Binary Gradient LC-30AD (Shimadzu Inc, Kyoto), coupled to a Sciex 6500+ (AB Inc., Illinois). Separation of compounds was achieved using a HALO 90Å biphenyl (2.7µm,2.1x50mm) (Advanced Materials Technology, Wilmington) column at a temperature of 40°C. A binary mobile phase gradient at a flow rate of 0.7 mL/min was used. Initial LC conditions comprised of 95% solvent A (0.1% formic acid in water) and 5% solvent B (0.1% formic acid in acetonitrile). This was ramped to 95% solvent B at 0.7 minutes, held for 0.5 minutes and then immediately returned to initial conditions. Sample analysis was by electrospray ionisation combined with multiple reaction monitoring in positive ion mode. The ion spray voltage was 5500V.
In vitro Absorption, Distribution and Metabolism results
Table S1 – Result from solubility assays performed in PBS pH 7.4 for SSA 9.
Table S2 – Summary of results from Caco-2 permeability assays for SSA 9. Papp is given as […]
cm/s. A = apical; B = basolateral. Recovery = % SSA recovered from the assay after 2 hours.
ID Papp (A-B) % Recovery Papp (B-A) % Recovery Efflux Ratio
Table S3 – Summary of results from human plasma protein binding assays for SSA 9. % Bound = % of SSA bound to the plasma proteins after 6 hours incubation at 37 °C. Low % […]
= > 99 %. % Recovery = % SSA recovered from the assay after 6 hours.
ID % Bound % Recovery % Stability
Table S4 – Summary of results from mouse, rat and human microsomal stability assays for SSA 9. The in vitro half-life (t1/2) and microsomal intrinsic clearance (CLint) were calculated from the elimination rate (k, the slope of the natural log of concentration verses time curve), assuming first order kinetics, using the formulae t1/2 = 0.693/-k and CLint = 0.693/t1/2 […]. This compound would be classed as a low clearance compound in all three species. […]

Where two headings read alike, the source gives them in different places.

As for `CCCC[N+](CCCC)(CCCC)CCCC` [TBACl, reference compound], the 50% growth inhibitory concentration (GI50) was found to be 532 µM in data set [1], 219 µM in data set [2] and 114 µM in data set [3].
`CC(=O)N1CCN(c2ccc(OCC3COC(Cn4ccnc4)(c4ccc(Cl)cc4Cl)O3)cc2)CC1` (centres unmarked) [Ketoconazole, reference compound] showed a recovery at 6 h, 5 µM in data set [4] of 96.6%.
The molecule `COCCc1ccc(OCC(O)CNC(C)C)cc1` (centres unmarked) [Metoprolol] registered a Papp B→A at 2 h, 5 µM in data set [5] of 26.4 ×10⁻⁶ cm/s. Also, the efflux ratio at 2 h, 5 µM in data set [5] (Caco-2, pH 7.4, Caco-2) is 0.93. The recovery at 2 h, 5 µM in data set [5] (read-out: Recovery (%) AP-BL) stood at 108%; in data set [5] (read-out: Recovery (%) BL-AP), 99%. This molecule gave a Papp A→B at 2 h, 5 µM in data set [5] (Caco-2, pH 7.4) of 28.4 ×10⁻⁶ cm/s.
Consider `C[C@H]1O[C@@H](O[C@H]2[C@@H](O)C[C@H](O[C@H]3[C@@H](O)C[C@H](O[C@H]4CC[C@@]5(C)[C@H](CC[C@@H]6[C@@H]5C[C@@H](O)[C@]5(C)[C@@H](C7=CC(=O)OC7)CC[C@]65O)C4)O[C@@H]3C)O[C@@H]2C)C[C@H](O)[C@@H]1O` [Digoxin], for which, in data set [5] (Caco-2, pH 7.4), the efflux ratio at 2 h, 5 µM was 45.6 and the Papp A→B at 2 h, 5 µM was found to be 0.42 ×10⁻⁶ cm/s. Moreover, the Papp B→A at 2 h, 5 µM in data set [5] was 18.7 ×10⁻⁶ cm/s. In addition, the recovery at 2 h, 5 µM in data set [5] (read-out: Recovery (%) AP-BL) was 95.9%. In data set [5] (read-out: Recovery (%) BL-AP), the recovery at 2 h, 5 µM was 99.2%.
As for `N.N.[Cl][Pt][Cl]` [Cisplatin, cisplatin, reference compound], the GI50 in data set [1] came out at 6.25 µM; in data set [2], 10.8 µM; in data set [3], 1.09 µM.
